Results: patent EP1977759A1, “Pharmaceutical composition comprising a cytokine” (4SC AG, priority 2007, dated 2008)

Columns and labels:
[1] = test system: Madin-Darby bovine kidney cells; experiment: BVDV assay, cytotoxicity of the drug-drug combination (MTS staining for cell viability); assay type: cell-based; conditions: in combination with TNF-α; MDBK cells; interaction by Bliss independence (MacSynergy II)
Description: (§1) The substances were solubilized in DMSO. […]
(§2) The bovine viral diarrhea virus (BVDV) NADL strain antiviral evaluation assay and drug-drug combination analysis was performed as described in Antimicro. Agents Chemother. 2003; 47: 2293-8. BVDV is frequently employed as a hepatitis C virus surrogate model in the study of antiviral agents (Antiviral Res. 2003; 60: 1-15). Madin-Darby bovine kidney cells were trypsinized, pelleted, counted and resuspended at 1×10^4/well in tissue culture medium in 96-well flat bottom, tissue culture plates in volume of 100µl per well. […]
(§3) At assay termination, the assay plates were stained with the soluble tetrazolium-based dye MTS (CellTiter Reagent Promega) to determine cell viability and quantify compound toxicity. MTS is metabolized y the mitochondrial enzymes of metabolically active cells to yield a soluble formazan product, allowing the rapid quantitative analysis of cell viability and compound cytotoxicity. […] Adhesive sealers were used in place of the lids, the sealed plate was inverted several times to mix the soluble formazan product and the plate was read spectrophotometrically at 490 nm and 650 nm with a Molecular Devices Vmax plate reader. […]
(§4) Theoretical additive values are calculated from the dose response curves for each substance used individually. […]

[2] = test system: bovine viral diarrhea virus (BVDV) NADL strain; experiment: BVDV antiviral efficacy evaluation, drug-drug combination analysis (checkerboard, MTS staining, MacSynergy II); assay type: cell-based; conditions: in combination with TNF-α; MDBK cells with BVDV virus; interaction by Bliss independence (MacSynergy II)
Description: as §1, §2, §3, §4

O=C(c1ccccc1)c1ccc2nc(NC(=O)c3csc(C4CCN(c5ncnc6ccsc56)CC4)n3)[nH]c2c1 [Compound 273, 2-(1-Thieno[3,2-d]pyrimidin-4-yl-piperidin-4-yl)-thiazole-4-carboxylic acid (5-b enzoyl-1H-benzaimidazol-2-yl)-amide] was tested, and the combined cytotoxic activity [1] was “highly antagonistic behaviour” and the combined antiviral activity [2] was “highly synergistic behaviour”.
